Data taken from ChEMBL document CHEMBL1151909, “Mechanism of action of N-phenyl-N'-(2-chloroethyl)ureas in the colchicine-binding site at the interface between alpha- and beta-tubulin” (2009).

Test system: HT-29
Experiment: Antiproliferative activity against human HT-29 cells after 48 hrs by SRB assay
Type: functional
Conditions: HT-29, 48 h

| Structure (SMILES) | GI50 |
| --- | --- |
| CCCCCc1cccc(NC(=O)NCCCl)c1 | 620 nM |
| COCCCCCc1cccc(NC(=O)NCCCl)c1 | 840 nM |
| COc1ccc(CCc2cccc(NC(=O)NCCCl)c2)cc1O | 9600 nM |
| COc1ccc(/C=C\c2ccc(NC(=O)NCCCl)cc2)cc1O | 2400 nM |
| CC(=O)CCCCc1cccc(NC(=O)NCCCl)c1 | 600 nM |
| O=C(NCCCl)Nc1cccc(CCCCCO)c1 | 160 nM |
| O=C(NCCCl)Nc1cccc(CCCCCCO)c1 | 300 nM |
| O=C(NCCCl)Nc1cccc(CCCCO)c1 | 710 nM |
